Measurements published in patent publication US20120027720A1, “PEPTIDE CONJUGATES” (priority 2008, published 2012).
Where no end group is shown, it is not given here. [ ]: non-standard residue; d: D form.

Legend:
Assay type in all cases: cell-based
[1] = tested on: IEC6 cells; test: Real-Time Cell Electronic Sensing (RT-CES, ACEA) assay of cell morphology change; design: key: + indicates an enhancement of the permeability of the tight junctions were observed; − indicates no enhancement of permeability was observed; details: peptide at 5 mg/mL
Source text: Agonists of tight junctions can be identified by their ability to induce changes in morphology of cells in a monolayer of cells that comprise tight junctions. Such changes in the morphology of IEC6 cells may be measured using a Real-Time Cell Electronic Sensing protocol as described below.
Tight junction agonists can be identified using the following method an used in peptide conjugates of the invention:
Materials: cells: IEC6 passage 30-50, medium: DMEM 10% no calcium no magnesium, foetal bovine serum 0.1 unit per ml bovine insulin, buffers: phosphate buffered saline (PBS) no calcium no magnesium, trypsin: 0.25% porcine trypsin in HBSS no calcium no magnesium, flasks: 100×20 mm Tissue culture dish Falcon, plates: 16× E-Plate, machine: RT-CES™ 16× system (ACEA Biosciences, Inc., San Diego, Calif.)
Wash a 75 cm^2 flask of confluent IEC6 cells twice with 25 ml of PBS.
Add 2.5 ml of trypsin to the flask and place back in the incubator at 37° C.
Wash cells from the surface of the flask with 10 ml of serum containing media to quench the trypsin.
Pellet the cells by centrifugation at 1500 rpm for 5 minutes aspirate the media.
Resuspend the cell pellet in 10 ml of serum free media and centrifuge at 1500 rpm for 5 minutes aspirate the media and repeat for a total of 5 washes.
Take 100 μl of cells and mix with 100 μl of trypan blue.
Count the cells four times and use the average cell concentration.
Dilute the cells to 1×10^6 per ml in serum free media.
Add 100 μl of serum free media to each well of the ACEA plates to be used.
Insert the ACEA plate and press scan.
Run step 1 of the program to measure background.
Add 50 μl of cells to each well of the ACEA plate tap each slide of the plate 10 times and place the cells on the bench for 15 minutes to allow the cells to settle.
Insert the ACEA plate and run the scan step to check connections and run step 2-1 and 2-2 overnight.
Step 2-1 sample every 2 minutes 30 times.
Step 2-2 sample every 15 minutes 100 times.
The cell indices should be between 6-10 after the overnight run and should have reached a plateau.
Remove 100 μl of media carefully from each well.
Make up the compounds to be tested so that 50 μl contains 2× the desired final concentration.
Add 50 μl of compounds to the designated wells.
Scan the plate to check connections.
Step 3-1 sample every 2 minutes 30 times.
Step 3-2 sample every 15 minutes 100 times.

[2] = tested on: CaCo2 monolayers; test: Epithelial flux of Lucifer Yellow through cell monolayer; design: key to Enhanced LY permeability: + indicates an enhancement of the permeability of the tight junctions were observed; − indicates no enhancement of permeability was observed; details: Lucifer Yellow flux, Caco-2 monolayer
Outline: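 Caco-2 cells (passage 40-60) grown 21-28 days on Transwell filters, equilibrated 30 min at 37 °C in HBSS-HEPES pH 7.4; Lucifer Yellow with test compound applied apically, n=3 filters. Basolateral samples at 60, 120, 180 min read by fluorescence at 485/535 nm against standard curve; TEER also measured.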

[3] = tested on: CaCo2 monolayers; test: Trans Epithelial Electric Resistance (TEER) across cell monolayer; design: key to Reduced TEER: + indicates an enhancement of the permeability of the tight junctions were observed; − indicates no enhancement of permeability was observed; details: Caco-2 monolayer
Outline: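 Caco-2 cells, passage 40-60, grown 21-28 days on Transwell filters, equilibrated 30 min at 37° C in MHBSS pH 7.4. Test compound with Lucifer Yellow applied apically (n=3), incubated at 37° C with 50 RPM shaking; TEER measured at baseline and at 30, 60, 120 and 180 min.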

Row | Substance | ACEA 5 mg/mL [1] | Enhanced LY permeability [2] | Reduced TEER [3]
1 | 3 (FAIGRL; not fully specified; printed as Phe-Ala-Ile-Gly-Arg-Leu) [compound 3] | − | − | −
2 | 17 ([dL][dR]G[dI][dC][dF]; also: peptide conjugate) [compound 17] | − | + | +
3 | 13 (F[dC]IGRL; also: peptide conjugate) [compound 13] | + | + | +
4 | 23 (LRGICF; not fully specified; printed as Leu-Arg-Gly-Ile-Cys-Phe) [compound 23] | − | + | +
5 | 5 (FCIARL; not fully specified; printed as Phe-Cys-Ile-Ala-Arg-Leu) [compound 5] | − | − | −
6 | 16 (FCIGR[dL]; also: peptide conjugate) [compound 16] | − | − | −
7 | 2 (ACIGRL; not fully specified; printed as Ala-Cys-Ile-Gly-Arg-Leu) [compound 2] | + | − | −
